Where a name gives a salt, the structure may show the parent alone. Read-outs that look alike come from different tables or passages of the source.
Key:
[1] = tested on: methylphenidate-induced gnawing; test: Methylphenidate antagonism; format: in vivo, mice
Catalepsy = format: in vivo, rat
5-HT2 receptor = target: T1, 5-HT2 receptor (Rattus norvegicus, UniProt P14842); test: Quipazine inhibition (head twitches); format: in vivo; conditions: for Qvipaz. inh. ED50(sc): sc 2 hours before quipazine 15 umol/kg sc
T1 construct: from tissue; host or cells: living rats (in vivo), CNS
T1 sequence (P14842 whole entry): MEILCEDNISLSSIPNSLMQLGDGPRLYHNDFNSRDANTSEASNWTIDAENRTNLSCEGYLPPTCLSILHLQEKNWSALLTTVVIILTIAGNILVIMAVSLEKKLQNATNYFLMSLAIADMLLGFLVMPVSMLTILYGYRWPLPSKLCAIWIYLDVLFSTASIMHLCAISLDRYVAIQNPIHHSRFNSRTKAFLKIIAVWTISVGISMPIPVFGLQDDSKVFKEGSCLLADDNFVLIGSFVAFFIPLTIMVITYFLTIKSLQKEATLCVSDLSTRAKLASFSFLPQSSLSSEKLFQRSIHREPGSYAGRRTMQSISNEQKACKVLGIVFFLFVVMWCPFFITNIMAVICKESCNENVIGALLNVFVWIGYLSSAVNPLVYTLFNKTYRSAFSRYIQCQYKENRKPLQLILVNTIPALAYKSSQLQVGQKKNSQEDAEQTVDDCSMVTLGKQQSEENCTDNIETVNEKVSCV
Method: Quipazine and a number of other compounds, which increase 5-HT2 receptor activity in the CNS, induce a characteristic rapid shake (twitch) of the head. This response is inhibited by 5-HT2 receptor antagonists (Vetulani et al. 1980, Arnt et al. 1984).
The test compound or saline is injected subcutaneously 2 hours before subcutaneous injection of quipazine hemimalecate (15umol/kg). At least 3 dose groups, each consisting of at least 4 rats, are used. The rats are individually placed in observation cages (12×25 cm) and the number of head twitches are counted 30-40 min after quipazine administration. Inhibition of head twitches is expressed in per cent of the number of head twitches in the control group. ED 50 values are calculated by log-probit analysis.
Vetulani, J., B.B. Beduarczyk, K. Reichenberg and A. Rokost: Neuropharmacology 19, 155-158, […].
Arnt, J., J. Hyttel and J.-J. Larsen: Acta pharmacol. et toxicol. 55, 363-372, 1984.

[2] = target: T2, dopamine (DA) D-2 receptors (Rattus norvegicus, UniProt P61169); test: 3H-spiroperidol binding, dopamine D-2 receptors in rat striatal membranes
T2 construct: DA D-2 receptors in rat striatal membranes; from tissue; host or cells: rat striatal membranes
T2 sequence (P61169 whole entry): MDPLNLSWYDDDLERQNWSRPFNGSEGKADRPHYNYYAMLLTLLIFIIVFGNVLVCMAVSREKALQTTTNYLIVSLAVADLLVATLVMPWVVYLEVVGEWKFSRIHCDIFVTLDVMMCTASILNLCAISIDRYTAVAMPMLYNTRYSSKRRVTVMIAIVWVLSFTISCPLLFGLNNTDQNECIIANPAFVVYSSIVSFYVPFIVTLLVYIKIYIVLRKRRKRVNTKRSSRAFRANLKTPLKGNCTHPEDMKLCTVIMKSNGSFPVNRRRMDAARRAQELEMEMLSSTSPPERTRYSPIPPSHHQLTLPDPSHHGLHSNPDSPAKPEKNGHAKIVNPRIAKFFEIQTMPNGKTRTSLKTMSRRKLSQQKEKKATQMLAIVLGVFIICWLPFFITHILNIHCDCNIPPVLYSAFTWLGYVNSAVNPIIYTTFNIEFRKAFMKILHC
Method: 4. ^3 H-spiroperidol bindings
The affinity of compounds to dopamine (DA) D-2 receptors and serotomin2 (5-HT2) receptors was determined by in vitro receptor binding technique.
Arnt, J., J. Hyttel and J.-J. Larsen: Acta pharmacol. et toxicol.

[3] = Mus musculus, ip; i.p. test substance; mice; methylphenidate s.c. 60 mg/kg; read-out: MePh Antg. ED50(ip)
[4] = read-out: Catalep. ED50(po) 1-6 h, po, rat, 1-6 h
[5] = Mus musculus, ip, read-out: MePh Antg. ED50(ip)
[6] = read-out: Catalep. ED50(po) 24 h, po, rat, 24 h
[7] = Rattus norvegicus, sc, 24 h, read-out: Catalep. ED50 (sc) 24 h
[8] = Rattus norvegicus, sc, read-out: Catalep. ED50 (sc) 1-6 h
[9] = Mus musculus, sc, read-out: MePh Antg. ED50 (sc)
[10] = Rattus norvegicus, po, 24 h, read-out: Catalep. ED50(po) 24 h
[11] = Rattus norvegicus, po, read-out: Catalep. ED50(po) 1-6 h
[12] = Mus musculus, sc; read-out: MePh Antg. ED50 (sc)

For `OCCN1CCN(CC/C=C2/c3ccccc3Sc3ccc(C(F)(F)F)cc32)CC1` [Cis(Z)Flupentixol, reference compound], the “MePh Antg. ED50(ip)” value ([1]; i.p. test substance; mice; methylphenidate s.c. 60 mg/kg) was 0.14 µmol/kg, the “Catalep. ED50(po) 1-6 h” value (Catalepsy; po, rat, 1-6 h) was 2.4 µmol/kg and the “Catalep. ED50(po) 24 h” value (Catalepsy; po, rat, 24 h) was 19 µmol/kg. For the same compound, the “Qvipaz. inh. ED50(sc)” value (5-HT2 receptor) was 0.042 µmol/kg.

Work on `O=C(CCCN1CCC(O)(c2ccc(Cl)cc2)CC1)c1ccc(F)cc1` [Haloperidol, reference compound] yielded an ED50 [1, 3] of 0.11 µmol/kg and an ED50 (Catalepsy; [4]) of 1 µmol/kg.

`Cc1ccc2c(c1)c(C1CCN(C)CC1)cn2-c1ccc(F)cc1` [Lu 21-037, 1-(4'-Fluorophenyl)-5-methyl-3-(1-methyl-4-piperidyl)-1H-indole, hydrobromide] showed an ED50 [1, 3] of 2.1 µmol/kg.

Compound `O=C1NCCN1CCN1CC=C(c2cn(-c3ccc(F)cc3)c3ccc(F)cc23)CC1` [Lu 21-046, oxalate] has an ED50 [1, 5] of 48.1 µmol/kg.

In the case of `CN1CCC(c2cn(-c3ccc(F)cc3)c3ccc(C(F)(F)F)cc23)CC1` [Lu 21-131, 1-(4'-Fluorophenyl)-3-(1-methyl-4-piperidyl)-5-trifluoromethyl-1H-indole, oxalate], the ED50 [1, 3] is reported as 0.6 µmol/kg, the ED50 (Catalepsy; [4]) is reported as 0.59 µmol/kg and the ED50 (Catalepsy; [6]) is reported as 2.2 µmol/kg.

`CC(C)CN1CC=C(c2cn(-c3ccc(F)cc3)c3ccc(Cl)cc23)CC1` [Lu 22-134, 5-Chloro-1-(4'-fluorophenyl)-3-(1-isobutyl-1,2,3,6-tetrahydropyridin-4-yl)-1H-indole, hydrobromide] showed an ED50 [1, 5] of 1.7 µmol/kg, an ED50 (Catalepsy; [7]) of over 2.7 µmol/kg and an ED50 (Catalepsy; [8]) of 2.7 µmol/kg. For the same compound, the “Qvipaz. inh. ED50(sc)” value (5-HT2 receptor) was 2.5 µmol/kg and the IC50 [2] was 5.3 nM.

Compound `Fc1ccc(-n2cc(N3CCN(CCN4CCCC4=S)CC3)c3cc(C(F)(F)F)ccc32)cc1` [Lu 23-018, 1-(4'-Fluorophenyl)-3-(4-(2-(pyrrolidin-2-thion-1-yl)-ethyl)-1-piperazino)-5-trifluoromethyl-1H-indole] has an ED50 [1, 3] of 53 µmol/kg, an ED50 (Catalepsy; [4]) of 1.2 µmol/kg and an ED50 (Catalepsy; [6]) of 2.9 µmol/kg.

`O=C1NCCN1CCN1CC=C(c2cn(-c3ccc(F)cc3)c3ccccc23)CC1` [Lu 23-075, 1-(4'-Fluorophenyl)-3-(1-(2-imidazolidinon-1-ylethyl)-1,2,3,6-tetrahydropyridin-4-yl)-1H-indole, hydrochloride] showed an ED50 [1, 9] of 19 µmol/kg and an ED50 (5-HT2 receptor; sc, 2 h, read-out: Qvipaz. inh. ED50(sc)) of 0.18 µmol/kg.

`CN1CC=C(c2cn(-c3ccc(F)cc3)c3ccccc23)CC1.Cl` [Lu 23-083, 1-(4'-Fluorophenyl)-3-(1-methyl-1,2,3,6-tetrahydropyridin-4-yl)-1H-indole, hydrochloride] gave an ED50 [1, 9] of 1.3 µmol/kg, an ED50 (Catalepsy; [10]) of over 14 µmol/kg and an ED50 (Catalepsy; [11]) of 9.4 µmol/kg. For the same compound, the “Qvipaz. inh. ED50(sc)” value (5-HT2 receptor) was 0.15 µmol/kg and the IC50 [2] was 1.8 nM.

In the case of `O=[N+]([O-])c1ccc2c(c1)c(C1=CCNCC1)cn2-c1ccc(F)cc1` [Lu 23-133, 1-(4'-Fluorophenyl)-5-nitro-3-(1,2,3,6-tetrahydropyridin-4-yl)-1H-indole, maleate], the ED50 [1, 9] is reported as 18 µmol/kg, the ED50 (Catalepsy; [10]) is reported as over 11 µmol/kg and the ED50 (Catalepsy; [11]) is reported as 11 µmol/kg. It also gave an IC50 [2] of 5.9 nM.

In the case of `OCCN1CC=C(c2cn(-c3ccc(F)cc3)c3ccc(Cl)cc23)CC1` [Lu 23-146, 5-Chloro-1-(4'-fluorophenyl)-3-(1-(2-hydroxyethyl)-1,2,3,6-tetrahydropyridin-4-yl)-1H-indole, hydrochloride], the ED50 [1, 9] is reported as 0.73 µmol/kg and the ED50 (Catalepsy; [8]) is reported as 1 µmol/kg.

`Fc1ccc(-n2cc(C3=CCNCC3)c3cc(Cl)ccc32)cc1` [Lu 23-147, 5-Chloro-1-(4'-fluorophenyl)-3-(1,2,3,6-tetrahydropridin-4-yl)-1H-indole] gave an ED50 [1, 9] of over 99 µmol/kg.

Compound `O=C1NCCN1CCN1CC=C(c2cn(-c3ccc(F)cc3)c3ccc(Cl)cc23)CC1` [Lu 23-148, 5-Chloro-1-(4'-fluorophenyl)-3-(1-(2-imidazolidinon-1-ylethyl)-1,2,3,6-tetrahydropyridin-4-yl)-1H-indole] has an ED50 [1, 9] of over 91 µmol/kg.

`CN1CC=C(c2cn(-c3ccc(F)cc3)c3ccc(N)cc23)CC1` [Lu 23-149, 5-Amino-1-(4'-fluorophenyl)-3-(1-methyl-1,2,3,6-tetrahydropyridin-4-yl)-1H-indole, fumarate] gave an ED50 [1, 9] of 0.45 µmol/kg.

Work on `Fc1ccc(-n2cc(C3=CCNCC3)c3cc(C(F)(F)F)ccc32)cc1` [Lu 23-155, 1-(4'-Fluorophenyl)-3-(1,2,3,6-tetrahydropyridin-4-yl)-5-trifluoromethyl-1H-indole] yielded an ED50 [1, 9] of 3.8 µmol/kg.

With `O=C1NCCN1CCN1CC=C(c2cn(-c3ccc(F)cc3)c3ccc(C(F)(F)F)cc23)CC1` [Lu 23-157, 1-(4'-Fluorophenyl)-3-(1-(2-imidazolidinon-1-ylethyl)-1,2,3,6-tetrahydropridin-4-yl)-5-trifluoromethyl-1H-indole] the ED50 [1, 9] was 0.37 µmol/kg, the ED50 (Catalepsy; [7]) was 2.6 µmol/kg and the ED50 (Catalepsy; [8]) was 0.49 µmol/kg. For the same compound, the “Qvipaz. inh. ED50(sc)” value (5-HT2 receptor) was 0.12 µmol/kg.

In the case of `O=C1CCCN1CCN1CCC(c2cn(-c3ccc(F)cc3)c3ccc(C(F)(F)F)cc23)CC1` [Lu 23-158, 1-(4'-Fluorophenyl)-3-(1-(1-pyrrolidin-2-onylethyl)-4-piperidyl)-5-trifluoromethyl-1H-indole, fumarate], the ED50 [1, 12] is reported as 2.9 µmol/kg.

`Fc1ccc(-n2cc(C3=CCNCC3)c3cc(F)ccc32)cc1` [Lu 23-159, 5-fluoro-1-(4'-fluorophenyl)-3-(1,2,3,6-tetrahydropyridin-4-yl)-1H-indole] gave an ED50 [1, 9] of 47 µmol/kg.

Work on `CC(=O)OCCN1CCN(c2cn(-c3ccc(F)cc3)c3ccc(C(F)(F)F)cc23)CC1` [Lu 23-161] yielded an ED50 [1, 12] of 0.05 µmol/kg, an ED50 (Catalepsy; [7]) of 0.18 µmol/kg and an ED50 (Catalepsy; [8]) of 0.09 µmol/kg.

For `CCCCCCCCCC(=O)OCCN1CCN(c2cn(-c3ccc(F)cc3)c3ccc(C(F)(F)F)cc23)CC1` [Lu 23-162], the ED50 [1, 12] was 1.7 µmol/kg.

For `CCCCCCCC/C=C\CCCCCCCC(=O)OCCN1CCN(c2cn(-c3ccc(F)cc3)c3ccc(C(F)(F)F)cc23)CC1` [Lu 23-163, 1-(4'-Fluorophenyl)-3-(4-(l-oleyloxyethyl)-1-piperazino)-5-trifluoromethyl-1H-indole, dihydrochloride], the ED50 [1, 12] was 1.1 µmol/kg.

Work on `CC(C)N1CC=C(c2cn(-c3ccc(F)cc3)c3ccc(F)cc23)CC1` [Lu 23-167, 5-fluoro-1-(4'-fluorophenyl)-3-(1-(2-propyl)-1,2,3,6-tetrahydropyridin-4-yl)-1H-indole, fumarate] yielded an ED50 [1, 9] of 2.7 µmol/kg, an ED50 (Catalepsy; [7]) of over 11 µmol/kg and an ED50 (Catalepsy; [8]) of 2.7 µmol/kg.

`OCCCN1CC=C(c2cn(-c3ccc(F)cc3)c3ccc(C(F)(F)F)cc23)CC1` [Lu 23-171, 1-(4'-Fluorophenyl)-3-(1-(3-hydroxypropyl)-1,2,3,6-tetrahydropyridin-4-yl) -5trifluoromethyl-1H-indole] gave an ED50 [1, 9] of 0.11 µmol/kg.

In the case of `Fc1ccc(-n2cc(C3=CCN(CCn4cccc4)CC3)c3cc(C(F)(F)F)ccc32)cc1` [Lu 23-172, 1-(4'-Fluorophenyl)-3-(1-pyrrolo-2-ethyl)-1,2,3,6-tetrahydropyridin-4-yl)-5-trifluoromethyl-1H-indole. maleate], the ED50 [1, 9] is reported as over 70 µmol/kg, the “Qvipaz. inh. ED50(sc)” value (5-HT2 receptor) is reported as over 0.55 µmol/kg and the IC50 ([2]; read-out: 3H-Spiroperidol bindings DA-2 receptors IC50, rat striatal membranes, in vitro) is reported as 31 nM.

With `Fc1ccc(-n2cc(C3=CCN(CCn4ccnc4)CC3)c3cc(C(F)(F)F)ccc32)cc1` [Lu 24-002, 1-(4'-Fluorophenyl)-3-(1-(1-imidazole-2-ethyl)-1,2,3,6-tetrahydropyridin-4-yl)-5-trifluoromethyl-1H-indole, dimaleate] the ED50 [1, 9] was 0.45 µmol/kg and the “Qvipaz. inh. ED50(sc)” value (5-HT2 receptor) was over 0.45 µmol/kg.

Compound `CN1CC=C(c2cn(-c3cccc(F)c3)c3ccc([N+](=O)[O-])cc23)CC1` [Lu 24-004, 1-(3'-Fluorophenyl)-5-nitro-3-(1-methyl-1,2,3,6-tetrahydropyridin-4-yl)-1H-indole, maleate] has an ED50 [1, 9] of 1.1 µmol/kg.

Work on `OCCN1CC=C(c2cn(-c3ccc(C(F)(F)F)cc3)c3ccccc23)CC1` [Lu 24-012, 3-(1-(2-Hydroxyethyl)-1,2,3,6-tetrahydropyridin-4-yl)-1-(4'-trifluoromethylphenyl-1H-indole, fumarate] yielded an ED50 [1, 9] of over 20 µmol/kg.

Compound `CN1CC=C(c2cn(-c3nccs3)c3ccc(F)cc23)CC1` [Lu 24-013, 5-Fluro-3-(1-methyl-1,2,3,6-tetrahydropyridin-4-yl)-1-(2-thiazolo)-1H-indole, fumarate] has an ED50 [1, 9] of over 20 µmol/kg.

`CN1CC=C(c2cn(-c3cccs3)c3ccc([N+](=O)[O-])cc23)CC1` [Lu 24-014, 3-(1-Methyl-1,2,3,6-tetrahydropyridin-4-yl)-5-nitro-1-(2-thienyl)-1H-indole, maleate] gave an ED50 [1, 9] of over 22 µmol/kg.

For `CN1CC=C(c2cn(-c3ccccn3)c3ccc([N+](=O)[O-])cc23)CC1` [Lu 24-015, 3-(1-Methyl-1,2,3,6-tetrahydropyridin-4-yl)-5-nitro-1-pyridin-2-yl-1H-indole], the ED50 [1, 9] was 3.8 µmol/kg.

Compound `CN1CC=C(c2cn(-c3cccnc3)c3ccc([N+](=O)[O-])cc23)CC1` [Lu 24-016, 3-(1-Methyl-1,2,3,6-tetrahydropyridin-4-yl)-5-nitro-1-pyridin-3-yl-1H-indole] has an ED50 [1, 9] of over 30 µmol/kg.

— US4710500A, “1-(4'-fluorophenyl)-3,5-substituted indoles useful in the treatment of psychic disorders and pharmaceutical compositions thereof” (H. Lundbeck A/S, priority 1985, dated 1987)
